# Experiments:
# PHGDH = PHGDH (Homo sapiens (Human), UniProt O43175); experiment: Differential scanning fluorimetry; type: binding
# Protocol: Destabilization has been previously observed in the specific binding of small molecules to their protein targets (see, e.g., Hamiaux, C. et al. “DAD2 is an α/β hydrolase likely to be involved in the perception of the plant branching hormone, strigolactone.” Curr Biol 22, 2032-2036 (2012)).
# Differential scanning fluorimetry assays were carried out in 20 mM TEA pH 8, 100 mM NaCl, 1× SYPRO Orange (Sigma), 2 μM PHGDH in a volume of 10 μL. Unfolding was monitored using a LightCycler 480 II real-time PCR instrument (λex=465 nm and λem=580 nm) over a linear 20 to 85° C. gradient. Plots of the first derivative of fluorescence vs. temperature were generated in LightCycler software.
# GAPDH = GAPDH (Homo sapiens (Human), UniProt P04406); experiment: Counter-screen against GAPDH; type: biochemical; details: Table E11
# Protocol: GAPDH substrate buffer contained 210 mM Tris pH 7.4, 2.5 mM NaH2PO4 pH 7.4, 2 mM DL-Glyceraldehyde 3-phosphate, 1.75 mM MgCl2, 0.01 mM NAD+, 0.11 mM resazurin, 0.2 mg/mL BSA, and 0.01% Tween-20. GAPDH enzyme buffer contained 50 mM Tris pH 7.4, 100 mM NaCl, 0.02 mM TCEP, 0.01 mM EDTA, 0.1 mg/mL BSA, 0.42 mg/mL diaphorase, and 2.5 nM GAPDH. The GAPDH, GPD1, and GPD1L assays were run in 384-well plates using the same protocol and readout as the PHGDH assay. […] GPD1 enzyme buffer contained 50 mM Tris pH 7.4, 100 mM NaCl, 0.08 mM TCEP, 0.4 mg/mL BSA, 0.03 μM EDTA, and 0.8 nM GPD1. 70 μL of substrate buffer were mixed with 10 μL enzyme buffer. GPD1L substrate buffer contained 200 mM Tris pH 7.4, 0.05 mM sn-G3-P, 2 mM MgCl2, 0.04 mM NAD+, 0.11 mM resazurin, 0.1 mg/mL BSA, and 0.02% Tween-20. GPD1L enzyme buffer contained 50 mM Tris pH 7.4, 100 mM NaCl, 0.02 mM TCEP, 0.42 mg/mL diaphorase, 0.1 mg/mL BSA, 0.008 μM EDTA, and 16 nM GPD1L. 40 μL of substrate buffer were mixed with 40 μL of enzyme buffer.
# The GAPDH and GPD1L assays were read using the same protocol as the PHGDH assay. The GPD1 assay was read using loss of NADH fluorescence (λex=340 nm and λem=460 nm).
# [1] = system: MDA-MB-231 cells over-expressing PHGDH; experiment: Intracellular serine in MDA-MB-231 cells expressing PHGDH, medium lacking serine and glycine (LC-MS); type: cell-based, human; details: media lacking serine and glycine
# Protocol: To examine target engagement of PHGDH inhibitors in cells, MDA-MB-231 cells that lack detectable expression of PHGDH and MDA-MB-231 cells that stably express full-length human PHGDH (MDA-MB-231-PHGDH) were treated with PHGDH inhibitors in RPMI lacking serine and glycine. A MDA-MB-231 cell line was constructed which expresses PHGDH for comparison against the MDA-MB-231 empty vector line. MDA-MB-231 breast cancer cells were infected with PHGDH-expressing retrovirus.
# MDA-MB-231 cells are incapable of synthesizing serine, but the addition of PHGDH permits these cells to synthesize serine. […] Concentrations of serine were determined by comparison with signals of internal standards and calibration curves. PHGDH inhibition reduces steady-state levels of intracellular serine in MDA-MB-231 cells over-expressing PHGDH. Studies were also performed in MDA-MB-468 cells, which over-express PHGDH and are PHGDH-dependent.
# Cells were evenly seeded at 400,000 cells per well of a 6-well plate and allowed to attach for 24 hours. Prior to all labeling experiments, cells were pretreated with 10 μM compound or an equivalent volume of DMSO in RPMI for 1 hour. For steady-state metabolite concentrations, cells were washed with PBS prior to pretreatment and treatment in RPMI lacking serine and glycine. For labeling experiments, U-^13C-glucose, U-^13C-serine, or U-^13C-glycine replaced the corresponding unlabeled RPMI component. Cells were washed in 4° C. […] Triplicate identically seeded wells were trypsinzed and analyzed with a Multisizer Coulter Counter (Beckman Coulter) to obtain cell counts and total cell volumes for normalization.
# Dried metabolites were resuspended in 100 μL water, centrifuged at 13,000×g at 4° C. for 10 minutes, and the supernatant recovered for analysis. […] Metabolites were monitored using a polarity-switching full-scan method and identified by accurate mass (±20 ppm) and retention time within 15 seconds of a previously run pure standard. […]
# [2] = system: panel of other dehydrogenases; experiment: Panel of other dehydrogenases; type: biochemical
# MDA-MB-468 cells [3] = experiment: Metabolite profiling and 13C labeling in MDA-MB-468 cells (LC-MS); type: cell-based, human
# Protocol: To track the effects of PHGDH inhibition on glycolysis and serine biosynthesis, MDA-MB-231 and MDA-MB-468 cells were fed universally labeled carbon-13 glucose and the intracellular ratio of labeled to unlabeled glucose was measured at the times indicated in FIG. 3E.
# Cells were evenly seeded at 400,000 cells per well of a 6-well plate and allowed to attach for 24 hours. Prior to all labeling experiments, cells were pretreated with 10 μM compound or an equivalent volume of DMSO in RPMI for 1 hour. For steady-state metabolite concentrations, cells were washed with PBS prior to pretreatment and treatment in RPMI lacking serine and glycine. For labeling experiments, U-^13C-glucose, U-^13C-serine, or U-^13C-glycine replaced the corresponding unlabeled RPMI component. Cells were washed in 4° C. 0.9% (w/v) NaCl in LCMS-grade water and extracted in 1 mL/well of 80:20 (v/v) methanol:water with 0.01 ng/mL Val-d8 and Phe-d8 as internal extraction standards. The extraction solvent was dried under nitrogen gas and metabolite samples were stored at −80° C. until analysis. Triplicate identically seeded wells were trypsinzed and analyzed with a Multisizer Coulter Counter (Beckman Coulter) to obtain cell counts and total cell volumes for normalization.
# Dried metabolites were resuspended in 100 μL water, centrifuged at 13,000×g at 4° C. for 10 minutes, and the supernatant recovered for analysis. Chromatographic separation was achieved by injecting 1 pi of sample on a SeQuant ZIC-pHILIC Polymeric column (2.1 3 150 mm […], EMD Millipore). Flow rate was set to 0.1 ml per minute, column compartment was set to 25° C., and autosampler sample tray was set to 4° C. Mobile Phase A consisted of 20 mM ammonium carbonate, 0.1% ammonium hydroxide. Mobile Phase B was 100% acetonitrile. The mobile phase gradient (% B) was as follows: 0 min 80%, 30 min 20%, 31 min 80%, 42 min 80%. All mobile phase was introduced into the ionization source set with the following parameters: sheath gas=40, auxiliary gas=15, sweep gas=5, spray voltage=−3.1 kV or +3.0 kV, capillary temperature=275° C., S-lens RF level=40, probe temperature=350° C. Metabolites were monitored using a polarity-switching full-scan method and identified by accurate mass (±20 ppm) and retention time within 15 seconds of a previously run pure standard. Metabolite peaks were identified and integrated with Xcalibur v.2.2 software (Thermo Fisher Scientific) and normalized to internal standard and to total cell volume, m/z ratios for stable isotopically labeled metabolites were obtained from IsoMETLIN (See, e.g., Cho, K. et al. “isoMETLIN: a database for isotope-based metabolomics.” Anal Chem 86, 9358-9361 (2014)) and corrected for natural abundance.
# C234S PHGDH = C234S PHGDH (Homo sapiens (Human), UniProt O43175, C234S); experiment: Inhibition of C234S mutant PHGDH in vitro; type: biochemical; details: C234S vs wild type PHGDH
# MDA-MB-468 cells [4] = experiment: Cell cycle analysis; type: cell-based, human; details: after 48 hours
# Chain of PHGDH (O43175 whole entry): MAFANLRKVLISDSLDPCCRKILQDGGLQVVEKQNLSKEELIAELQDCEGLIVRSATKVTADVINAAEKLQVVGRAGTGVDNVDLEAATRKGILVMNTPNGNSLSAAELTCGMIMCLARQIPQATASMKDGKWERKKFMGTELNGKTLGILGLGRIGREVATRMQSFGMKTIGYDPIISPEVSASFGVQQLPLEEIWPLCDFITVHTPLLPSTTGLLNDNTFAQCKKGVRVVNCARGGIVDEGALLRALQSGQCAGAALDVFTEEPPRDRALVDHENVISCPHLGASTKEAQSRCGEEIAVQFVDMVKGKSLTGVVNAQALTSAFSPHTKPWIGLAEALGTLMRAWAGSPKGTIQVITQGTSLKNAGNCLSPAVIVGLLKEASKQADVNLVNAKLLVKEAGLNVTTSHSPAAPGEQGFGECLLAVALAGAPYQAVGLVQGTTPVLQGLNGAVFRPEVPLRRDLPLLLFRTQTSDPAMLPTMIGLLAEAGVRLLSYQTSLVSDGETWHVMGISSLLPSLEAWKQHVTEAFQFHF
# Chain of GAPDH (P04406 whole entry): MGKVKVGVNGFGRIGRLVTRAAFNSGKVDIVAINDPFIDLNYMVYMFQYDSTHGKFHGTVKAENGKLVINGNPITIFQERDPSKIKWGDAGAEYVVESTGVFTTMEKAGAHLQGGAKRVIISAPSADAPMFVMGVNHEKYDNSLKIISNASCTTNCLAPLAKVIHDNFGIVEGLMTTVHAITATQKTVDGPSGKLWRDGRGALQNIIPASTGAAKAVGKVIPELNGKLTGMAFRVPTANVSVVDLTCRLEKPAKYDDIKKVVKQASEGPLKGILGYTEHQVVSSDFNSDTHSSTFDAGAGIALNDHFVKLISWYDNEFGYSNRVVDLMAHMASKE
# Chain of C234S PHGDH (O43175 whole entry C234S): as the sequence (O43175 whole entry) above, with C234S counted along it
smiles,measurement,setting,value
"Cc1cc(C)nc(NC(=S)N2CCN(Cc3ccc(C(F)(F)F)cc3)CC2)c1 [Compound 267, N-(4,6-dimethylpyridin-2-yl)-4-(4-(trifluoromethyl)benzyl)piperazine-1-carbothioamide]",Tm of PHGDH,PHGDH,decreased
same,IC50,GAPDH,≥ 100 µM
same,intracellular serine levels,[1],reduced
same,activity against a panel of other dehydrogenases,[2],inactive
same,intracellular glucose concentration,MDA-MB-468 cells [3],did not change
same,incorporation of 13C from exogenous U-13C-serine into AMP and dTMP,MDA-MB-468 cells [3]; treatment for 4 hours,decreased
same,reduction of labeled (glucose-derived) intracellular serine,MDA-MB-468 cells [3]; universally labeled carbon-13 glucose,> 75%
same,reversibility of inhibition of serine synthesis in cells,MDA-MB-468 cells [3]; washout,reversible
same,reduction of potency of PHGDH inhibition by C234S mutation,C234S PHGDH,approximately 3 fold
same,cell cycle effect,MDA-MB-468 cells [4],G1/S arrest
